From patent US20220202739A1, “ENDOCANNABINOID MIMETIC AND ANTI-INFLAMMATORY COMPOUND CONTAINING COMPOSITIONS, METHODS OF PREPARATION AND USES THEREOF” (priority 2019, published 2022)

System: JUN
Assay: Gene expression custom microarray, pooled keratinocyte line (Example 3): JUN
Assay type: cell-based, human
Conditions: pooled keratinocytes, 20 ppm, 24 hr
Method: Cell cultures: Received and began culture of pooled keratinocyte line from Promocell (C-12006; Lot #448Z026). Cells were seeded into a 75 cm2 flask and 2 6 well dishes for expansion and exposure per manufacturer's protocol using Keratinocyte Growth Medium (C2011B), Keratinocyte Supplement Mix (C39016) and CaCl (C34005). 2 ml of prepared solution were added to each of the 6 wells and 7 ml was added to the 75 cm2 flask.
Experimental phase: When the appropriate quantity of cells were grown, they were detached as described above, but at the final step were seeded into each well of one or more 6 well dishes. Each well received 2 ml of the cells suspended in suspension so they were seeded equally. The dishes were returned to the incubator until 85-95% confluency is reached.
It was at this stage that all wells were rinsed in PBS after aspirating the growth media. The compound(s) to be tested were previously mixed into a suitable solvent (e.g., DMSO or ethanol) that can be diluted to the desired concentration of test compound (10 μl) in the culture wells without exceeding maximum solvent concentrations and adversely effecting cell viability, and mixed with Basal Keratinocyte Media. NOTE: Standard maximum levels of solvent are 0.1% for DMSO and 0.5% for ETOH. The concentration for each tested compound/natural extract is generally listed in the left-hand column of Table 4. For certain compositions (e.g., compositions 15 and 16), other concentrations were used and are noted in the body of Table 4.
Every 2 wells on the 6 well plate served as a biological replicate for the purposes of RNA isolation and genetic expression evaluations making each 6 well dish an n=3 for the test compound contained in the media. […]
At the end of the 24 hr time period, the plates were removed from the incubator, the test media aspirated, and the cells rinsed with PBS. […] Allow 1 minute for saturation of the membrane and then centrifuge for 2 minutes to complete the RNA elution. • Quantify the quantity of RNA and store at −20 C° until use (no more than 1 month) […]

Point of comparison: `CC(C)[C@]12O[C@H]1[C@@H]1O[C@]13[C@]1(O[C@H]1C[C@H]1C4=C(CC[C@@]13C)C(=O)OC4)[C@@H]2O` [Triptolide], “↓JUN gene expression, fold increase or decrease vs untreated cells” value −4.7 fold. Against it:
- C=C(C)[C@@H]1CCC(C)=C[C@H]1c1c(O)cc(CCCCC)cc1O [CBD, cannabidiol, reference compound] — higher, 2.7 fold
- CCCCCCCCCCCCCCCC(=O)NCCO [N-palmitoylethanolamide] — higher, −1.9 fold
